{
  "source": "patent US9863006B2",
  "about": "“Selective lysis of cells by ionic surfactants” (Biocartis NV, priority 2011, dated 2018)",
  "origin": "cited, not measured here",
  "settings": "room temperature",
  "data": [
    {"smiles": "CCCCCCCCCCCCOS(=O)(=O)[O-].[Na+]", "note": "[sodium dodecyl sulfate]", "values": [
      {"measurement": "time to cross the membrane", "result": "hours or days"}
    ]}
  ]
}
